Data: patent US20240393292A1, “ALLERGY ANTIGEN AND EPITOPE THEREOF” (HOYU CO., LTD., priority 2019, published 2024)
One block for each substance: values may come before it.

Tested on: IgE antibodies from patients
Experiment: Wheat epitope mapping (2): overlapping 10-amino-acid peptide fragments shifted by one amino acid;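 for Rank of partial sequence as epitope binding to IgE antibody: key = sequence deemed particularly important within the common 15-residue sequence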;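 for epitope sequence binding to IgE antibody, rank (Key/Preferably/More preferably): key of grades: preferably = shorter partial sequence still acting as epitope; more preferably = sequence improving IgE binding; key = particularly important sequence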
Assay type: binding, human
Summary of the method: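 Cellulose-bound 10-mer peptides offset by one residue were probed with patient serum IgE and detected by chemiluminescence. Secondary-antibody-only signals were subtracted per peptide. Residual binding was expressed as % of the parent overlapping peptide, scored as none (<30%), poor (30–<50%), somewhat poor (50–<70%) or retained (≥70%).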

[1] = serum of patient G1 (adult, general immediate type allergy to wheat), sequence without X
[2] = serum of patient P27 (WDEIA), partial sequence
[3] = serum of patient P32 (WDEIA), partial sequence
[4] = serum of patient P18 (WDEIA), partial sequence
[5] = serum of patient P35 (WDEIA), sequence without X
[6] = serum of patient P2 (WDEIA), sequence without X
[7] = serum of patient P25 (WDEIA), partial sequence

Substance: 1726 (KEAANFTS; REGION 1..8: note = epitope) [compound 1726]
epitope sequence binding to IgE antibody, rank (Key/Preferably/More preferably) (serum of patient P51 (child, general immediate type allergy to wheat)): Preferably

Substance: 1938 (QFPGQQ; REGION 1..6: note = epitope) [compound 1938]
epitope sequence binding to IgE antibody, rank (Key/Preferably/More preferably) (serum of patient P19 (WDEIA)): Key

Substance: 2261 (LLRGIRNYRV; REGION 1..10: note = epitope) [compound 2261]
Epitope sequence binding to IgE antibody, rank of the sequence (Key/Preferably/More preferably) [1]: Key

Substance: 1784 (LKKVGYNP; REGION 1..8: note = epitope) [compound 1784]
epitope sequence binding to IgE antibody, rank (Key/Preferably/More preferably) (serum of patient G5 (adult, general immediate type allergy to wheat)): Key

Substance: 1345 (NVEN; REGION 1..4: note = epitope) [compound 1345]
Epitope sequence binding to IgE antibody, rank of the sequence (serum of patient P33 (WDEIA), sequence without X): Key

Substance: 1664 (YNPDKVPF; REGION 1..8: note = epitope) [compound 1664]
Rank of partial sequence as epitope binding to IgE antibody (serum of patient G2 (adult, general immediate type allergy to wheat), sequence without X): Key

Substance: 1434 (YLQPQQPI; REGION 1..8: note = epitope) [compound 1434]
Rank of partial sequence as epitope binding to IgE antibody (serum of patient P16 (WDEIA), sequence without X): Preferably

Substance: 2388 (RCAYVTEIV; REGION 1..9: note = epitope) [compound 2388]
Epitope sequence binding to IgE antibody, rank of the sequence (Key/Preferably/More preferably) (serum of patient P32 (WDEIA), sequence without X): Key

Substance: 2436 (WSGKTE; REGION 1..6: note = epitope) [compound 2436]
Epitope sequence binding to IgE antibody, rank of the sequence (Key/Preferably/More preferably) (serum of patient P26 (WDEIA), sequence without X): Key

Substance: 2499 (SQVSF; REGION 1..5: note = epitope) [compound 2499]
Epitope sequence binding to IgE antibody, rank of the sequence (serum of patient P8 (WDEIA), partial sequence): Preferably

Substance: 1955 (QFPGQ; REGION 1..5: note = epitope) [compound 1955]
epitope sequence binding to IgE antibody, rank (Key/Preferably/More preferably) (serum of patient P26 (WDEIA)): Key

Substance: 2393 (PHDIDRCAYV; REGION 1..10: note = epitope) [compound 2393]
Epitope sequence binding to IgE antibody, rank of the sequence (Key/Preferably/More preferably) (serum of patient P34 (WDEIA), sequence without X): Preferably

Substance: 1873 (TVRTLQR; REGION 1..7: note = epitope) [compound 1873]
epitope sequence binding to IgE antibody, rank (Key/Preferably/More preferably) (serum of patient P30 (WDEIA)): Key

Substance: 1487 (YLQPQQPISQ; REGION 1..10: note = epitope) [compound 1487]
Rank of partial sequence as epitope binding to IgE antibody [5]: Preferably

Substance: 2345 (YVTEIVL; REGION 1..7: note = epitope) [compound 2345]
Epitope sequence binding to IgE antibody, rank of the sequence (Key/Preferably/More preferably) (serum of patient P9 (WDEIA), sequence without X): More preferably

Substance: 1580 (QPFPQTQQPQ; REGION 1..10: note = epitope) [compound 1580]
Rank of partial sequence as epitope binding to IgE antibody (serum of patient P20 (WDEIA), sequence without X): Further preferably

Substance: 1878 (TVRTLQRT; REGION 1..8: note = epitope) [compound 1878]
epitope sequence binding to IgE antibody, rank (Key/Preferably/More preferably) (serum of patient P32 (WDEIA)): Preferably

Substance: 2495 (FQPSQLNPQ; REGION 1..9: note = epitope) [compound 2495]
Epitope sequence binding to IgE antibody, rank of the sequence (serum of patient P2 (WDEIA), partial sequence): Key

Substance: 1918 (QVPLVQQQQ; REGION 1..9: note = epitope) [compound 1918]
epitope sequence binding to IgE antibody, rank (Key/Preferably/More preferably) (serum of patient P10 (WDEIA)): Preferably

Substance: 1859 (YTVRTLQR; REGION 1..8: note = epitope) [compound 1859]
epitope sequence binding to IgE antibody, rank (Key/Preferably/More preferably) (serum of patient P19 (WDEIA)): Preferably

Substance: 1843 (TVRTLQR; REGION 1..7: note = epitope) [compound 1843]
epitope sequence binding to IgE antibody, rank (Key/Preferably/More preferably) (serum of patient P9 (WDEIA)): Preferably

Substance: 1840 (RTLQ; REGION 1..4: note = epitope) [compound 1840]
epitope sequence binding to IgE antibody, rank (Key/Preferably/More preferably) (serum of patient P5 (WDEIA)): Key

Substance: 2219 (IRNYRVAI; REGION 1..8: note = epitope) [compound 2219]
Epitope sequence binding to IgE antibody, rank of the sequence (Key/Preferably/More preferably) [6]: Preferably

Substance: 2308 (ERFEK; REGION 1..5: note = epitope) [compound 2308]
Epitope sequence binding to IgE antibody, rank of the sequence (Key/Preferably/More preferably) (serum of patient G9 (adult, general immediate type allergy to wheat), sequence without X): Key

Substance: 2242 (IRNYRVAI; REGION 1..8: note = epitope) [compound 2242]
Epitope sequence binding to IgE antibody, rank of the sequence (Key/Preferably/More preferably) [5]: Key

Substance: 1624 (FVPISG; REGION 1..6: note = epitope) [compound 1624]
Rank of partial sequence as epitope binding to IgE antibody (serum of patient P25 (WDEIA), sequence without X): Key

Substance: 1661 (FVPISG; REGION 1..6: note = epitope) [compound 1661]
Rank of partial sequence as epitope binding to IgE antibody [1]: Key

Substance: 2357 (HDIDRCAY; REGION 1..8: note = epitope) [compound 2357]
Epitope sequence binding to IgE antibody, rank of the sequence (Key/Preferably/More preferably) (serum of patient P18 (WDEIA), sequence without X): Key

Substance: 1730 (SQVIIM; REGION 1..6: note = epitope) [compound 1730]
epitope sequence binding to IgE antibody, rank (Key/Preferably/More preferably) (serum of patient P52 (child, general immediate type allergy to wheat)): Key

Substance: 1235 (PQQPP; REGION 1..5: note = epitope) [compound 1235]
Epitope sequence binding to IgE antibody, rank of the sequence (serum of patient P17 (WDEIA), sequence without X): Key

Substance: 1210 (PIQQQP; REGION 1..6: note = epitope) [compound 1210]
Epitope sequence binding to IgE antibody, rank of the sequence (Key/Preferably/More preferably/Further preferably) [6]: Preferably

Substance: 2263 (SRLLR; REGION 1..5: note = epitope) [compound 2263]
Epitope sequence binding to IgE antibody, rank of the sequence (Key/Preferably/More preferably) (serum of patient G6 (adult, general immediate type allergy to wheat), sequence without X): Key

Substance: 1227 (PQQPPC; REGION 1..6: note = epitope) [compound 1227]
Epitope sequence binding to IgE antibody, rank of the sequence (serum of patient P12 (WDEIA), sequence without X): Key

Substance: 1936 (QVPLVQQ; REGION 1..7: note = epitope) [compound 1936]
epitope sequence binding to IgE antibody, rank (Key/Preferably/More preferably) (serum of patient P19 (WDEIA)): Key

Substance: 1891 (YTVRTL; REGION 1..6: note = epitope) [compound 1891]
epitope sequence binding to IgE antibody, rank (Key/Preferably/More preferably) (serum of patient G7 (adult, general immediate type allergy to wheat)): Key

Substance: 2276 (GGIDK; REGION 1..5: note = epitope) [compound 2276]
Epitope sequence binding to IgE antibody, rank of the sequence (Key/Preferably/More preferably) (serum of patient P10 (WDEIA), sequence without X): Key

Substance: 2274 (DKRVIERFEK; REGION 1..10: note = epitope) [compound 2274]
Epitope sequence binding to IgE antibody, rank of the sequence (Key/Preferably/More preferably) (serum of patient P8 (WDEIA), sequence without X): Preferably

Substance: 1925 (QFPGQQ; REGION 1..6: note = epitope) [compound 1925]
epitope sequence binding to IgE antibody, rank (Key/Preferably/More preferably) (serum of patient P13 (WDEIA)): Key

Substance: 1356 (INVEN; REGION 1..5: note = epitope) [compound 1356]
Epitope sequence binding to IgE antibody, rank of the sequence (serum of patient P36 (WDEIA), sequence without X): Preferably

Substance: 2380 (DRCAYVTEIV; REGION 1..10: note = epitope) [compound 2380]
Epitope sequence binding to IgE antibody, rank of the sequence (Key/Preferably/More preferably) (serum of patient P28 (WDEIA), sequence without X): Key

The next lines start with the values.

Epitope sequence binding to IgE antibody, rank of the sequence [2]: Key
Substance: 2570 (QLVQQ; REGION 1..5: note = epitope) [compound 2570]

Epitope sequence binding to IgE antibody, rank of the sequence [3]: Key
Substance: 2588 (QQLC; REGION 1..4: note = epitope) [compound 2588]

Epitope sequence binding to IgE antibody, rank of the sequence (serum of patient G3 (adult, general immediate type allergy to wheat), partial sequence): Preferably
Substance: 2625 (ASLSKRV; REGION 1..7: note = epitope) [compound 2625]

Epitope sequence binding to IgE antibody, rank of the sequence [4]: Key
Substance: 2717 (YKIGG; REGION 1..5: note = epitope) [compound 2717]

Epitope sequence binding to IgE antibody, rank of the sequence (serum of patient G7 (adult, general immediate type allergy to wheat), partial sequence): Key
Substance: 2698 (KGPTL; REGION 1..5: note = epitope) [compound 2698]

Epitope sequence binding to IgE antibody, rank of the sequence (serum of patient P36 (WDEIA), partial sequence): Key
Substance: 2595 (VQQL; REGION 1..4: note = epitope) [compound 2595]

Epitope sequence binding to IgE antibody, rank of the sequence (serum of patient P21 (WDEIA), partial sequence): Key
Substance: 2559 (LVQQLCC; REGION 1..7: note = epitope) [compound 2559]

Epitope sequence binding to IgE antibody, rank of the sequence (serum of patient P24 (WDEIA), partial sequence): Preferably
Substance: 2563 (QLVQQLCC; REGION 1..8: note = epitope) [compound 2563]

Epitope sequence binding to IgE antibody, rank of the sequence (serum of patient P7 (WDEIA), partial sequence): Key
Substance: 2634 (EAAE; REGION 1..4: note = epitope) [compound 2634]

Epitope sequence binding to IgE antibody, rank of the sequence (serum of patient P35 (WDEIA), partial sequence): Key
Substance: 2658 (FEKEAAE; REGION 1..7: note = epitope) [compound 2658]

Epitope sequence binding to IgE antibody, rank of the sequence (serum of patient P16 (WDEIA), partial sequence): Key
Substance: 2505 (SQVSF; REGION 1..5: note = epitope) [compound 2505]

Epitope sequence binding to IgE antibody, rank of the sequence [7]: Key
Substance: 2566 (YQLVQQLCC; REGION 1..9: note = epitope) [compound 2566]

Epitope sequence binding to IgE antibody, rank of the sequence (serum of patient P28 (WDEIA), partial sequence): Key
Substance: 2575 (QLVQ; REGION 1..4: note = epitope) [compound 2575]

Epitope sequence binding to IgE antibody, rank of the sequence [7]: Preferably
Substance: 2720 (IGGIGTVPVG; REGION 1..10: note = epitope) [compound 2720]

Epitope sequence binding to IgE antibody, rank of the sequence [4]: Preferably
Substance: 2716 (YKIGGI; REGION 1..6: note = epitope) [compound 2716]

Epitope sequence binding to IgE antibody, rank of the sequence [3]: Preferably
Substance: 2655 (EAAEMNK; REGION 1..7: note = epitope) [compound 2655]

Epitope sequence binding to IgE antibody, rank of the sequence [2]: Key
Substance: 2727 (GIGTVPVGR; REGION 1..9: note = epitope) [compound 2727]
